From US12559504B2, “Benzotriazole derivative” (UBE CORPORATION, priority 2019, dated 2026)

What was measured:
[1] = biological target: T1, GST fusion human Keap1 (amino acid residue: 325-624) protein (Homo sapiens, UniProt Q14145); assay: Keap1-Nrf2 binding inhibition test (fluorescence polarization); conditions: compound concentration of 100 nM; read-out: inhibition rate
T1 construct: GST fusion human Keap1 (amino acid residue: 325-624) protein; purchased Protein tech Ag0779
In short: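 Fluorescence polarization with FITC-labelled Nrf2 peptide (FITC-Ahx-LDEETGEFL-NH2) and GST-human Keap1 (325-624) in 20 mM Tris pH 7.5, 150 mM NaCl, 0.05% Tween 20, 5 mM DTT, BSA; 30 min at room temperature, ex 482/em 530 nm. Percent inhibition at 100 nM compound, Keap1-free wells = 100%.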

NQO1 [2] = assay: NQO1 enzyme induction test (in vitro) in Hepa1c1c7 cells; type: cell-based; conditions: Mus musculus, Hepa-1c1c7, 48 h, concentration to elevate the NQO1 activity by 1.5 times, about 48 hours, read-out: EC150
In short: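 Mouse Hepa1c1c7 cells treated about 48 h with compound (0.1% DMSO final), then lysed. NQO1 activity read as MTT reduction at 540 nm with menadione substrate, 5 min at room temperature, and corrected for cell number by CellTiter-Glo. EC150 is the concentration raising NQO1 activity 1.5-fold.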

NQO1 [3] = assay: NQO1 expression induction test in mouse kidney (single administration); type: in vivo; conditions: Mus musculus, po, 6 h, BALB/c mouse kidney, 6 hours after administration, ratio to control group
In short: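 Female BALB/c mice received a single oral dose of compound in 0.5% methylcellulose, with untreated mice as controls. Six hours later, left-kidney NQO1 mRNA was measured by SYBR real-time RT-PCR normalised to GAPDH. Induction was expressed as the ratio of mean treated to mean control expression.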

[4] = Metabolism test using human liver microsome fractions; type: in vitro ADME; conditions: human liver microsomes, test compound 10 μmol/L, NADPH and UDP-glucuronic acid, 37° C.
In short: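 Human or monkey liver microsomes (1 mg protein) with NADPH-regenerating system plus UDP-glucuronic acid/UGT mix, 37 °C; compound at 10 μmol/L final. Samples at 0–30 min quenched in acetonitrile, UV-HPLC; elimination rate (pmol/min/mg-P) from linear slope of residual amount over time.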

T1 sequence (Q14145 325-624): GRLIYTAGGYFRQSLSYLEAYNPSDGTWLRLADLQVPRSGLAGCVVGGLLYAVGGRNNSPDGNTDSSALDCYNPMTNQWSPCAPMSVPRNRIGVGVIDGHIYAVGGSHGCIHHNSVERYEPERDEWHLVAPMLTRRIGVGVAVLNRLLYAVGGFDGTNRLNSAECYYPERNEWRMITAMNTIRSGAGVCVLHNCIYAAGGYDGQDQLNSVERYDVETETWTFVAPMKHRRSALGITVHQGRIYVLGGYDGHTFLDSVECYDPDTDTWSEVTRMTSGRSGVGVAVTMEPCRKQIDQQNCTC

SMILES: CC[C@@H]1CN(Cc2cc(C(c3ccc4c(nnn4C)c3C)C(C)(C)C(=O)O)ccc2C)Cc2cc3cnccc3cc2O1 (stereo partly drawn) [Example 53, 3-(1,4-dimethyl-1H-benzo[d][1,2,3]triazol-5-yl)-3-(3-(((R)-2-ethyl-2,3-dihydro-[1,4]oxazepino[7,6-g]isoquinolin-4 (5H)-yl)methyl)-4-methylphenyl)-2,2-dimethylpropanoic Acid]
- inhibition at 0.1 µM [1]: ≥ 50%
- EC (1.5-fold NQO1 activity) (NQO1 [2]): 0.0005 to 0.005 µM
- fold induction at 30 mg/kg (NQO1 [3]): > 6
- Human metabolic rate [4]: C (150≤metabolic rate<200 pmol/min/mg protein)

SMILES: CC[C@@H]1CN(Cc2cc(C(c3ccc4c(nnn4C)c3C)C(C)(C)C(=O)O)ccc2C)Cc2cc3c(F)cccc3cc2O1 (stereo partly drawn) [Example 54-(b), 3-(1,4-dimethyl-1H-benzo[d][1,2,3]triazol-5-yl)-3-(3-(((R)-2-ethyl-7-fluoro-2,3-dihydronaphtho[2,3-f][1,4]oxazepin-4(5H)-yl)methyl)-4-methylphenyl)-2,2-dimethylpropanoic Acid]
- inhibition at 0.1 µM [1]: ≥ 50%
- EC (1.5-fold NQO1 activity) (NQO1 [2]): 0.005 to 0.05 µM
- fold induction at 30 mg/kg (NQO1 [3]): 3 to 6
- Human metabolic rate [4]: B (100≤metabolic rate<150 pmol/min/mg protein)

SMILES: CC[C@@H]1CN(Cc2cc(C(c3ccc4c(nnn4C)c3C)C(C)(C)C(=O)O)ccc2C)Cc2ccc3cnccc3c2O1.O=C(O)C(F)(F)F.O=C(O)C(F)(F)F (stereo partly drawn) [Example 55-(b), 3-(1,4-dimethyl-1H-benzo[d][1,2,3]triazol-5-yl)-3-(3-(((R)-2-ethyl-2,3-dihydro-[1,4]oxazepino[7,6-f]isoquinolin-4(5H)-yl)methyl)-4-methylphenyl)-2,2-dimethylpropanoic Acid Ditrifluoroacetate]
- inhibition at 0.1 µM [1]: ≥ 50%
- EC (1.5-fold NQO1 activity) (NQO1 [2]): 0.0005 to 0.005 µM
- fold induction at 30 mg/kg (NQO1 [3]): ≤ 3
- Human metabolic rate [4]: C (150≤metabolic rate<200 pmol/min/mg protein)

SMILES: CC[C@@H]1CN(Cc2cc(C(CC(=O)O)c3ccc4c(nnn4C)c3C)ccc2C)Cc2cc3ncccc3cc2O1 (stereo partly drawn) [Example 56-(b), 3-(1,4-dimethyl-1H-benzo[d][1,2,3]triazol-5-yl)-3-(3-(((R)-2-ethyl-2,3-dihydro-[1,4]oxazepino[7,6-g]quinolin-4(5H)-yl)methyl)-4-methylphenyl)propanoic acid]
- inhibition at 0.1 µM [1]: ≥ 50%
- EC (1.5-fold NQO1 activity) (NQO1 [2]): 0.0005 to 0.005 µM
- fold induction at 30 mg/kg (NQO1 [3]): 3 to 6
- Human metabolic rate [4]: E (metabolic rate≥250 pmol/min/mg protein)

SMILES: CC[C@@H]1CN(Cc2cc(C(c3ccc4c(nnn4CC)c3C)C(C)(C)C(=O)O)ccc2C)Cc2cc3ncccc3cc2O1 (stereo partly drawn) [Example 59-(b), 3-(3-(((R)-2-ethyl-2,3-dihydro-[1,4]oxazepino[7,6-g]quinolin-4(5H)-yl)methyl)-4-methylphenyl)-3-(1-ethyl-4-methyl-1H-benzo[d][1,2,3]triazol-5-yl)-2,2-dimethylpropanoic Acid]
- inhibition at 0.1 µM [1]: ≥ 50%
- EC (1.5-fold NQO1 activity) (NQO1 [2]): 0.0005 to 0.005 µM
- fold induction at 30 mg/kg (NQO1 [3]): > 6
- Human metabolic rate [4]: D (200≤metabolic rate<250 pmol/min/me protein)

SMILES: Cc1ccc(C(c2ccc3c(nnn3C)c2C)C(C)(C)C(=O)O)cc1CN1Cc2cc3ncccc3cc2OC(C)(C)C1 (stereo not drawn) [Example 60-(b), 3-(1,4-dimethyl-1H-benzo[d][1,2,3]triazol-5-yl)-3-(3-((2,2-dimethyl-2,3-dihydro-[1,4]oxazepino[7,6-g]quinolin-4 (5H)-yl)methyl)-4-methylphenyl)-2,2-dimethylpropanoic Acid]
- inhibition at 0.1 µM [1]: ≥ 50%
- EC (1.5-fold NQO1 activity) (NQO1 [2]): 0.0005 to 0.005 µM
- fold induction at 30 mg/kg (NQO1 [3]): ≤ 3
- Human metabolic rate [4]: D (200≤metabolic rate<250 pmol/min/me protein)

SMILES: CC[C@@H]1CN(Cc2cc(C(c3ccc4c(nnn4C)c3C)C(C)(C)C(=O)O)ccc2C)Cc2cc3c(cc2O1)OC(C)(C)O3 (stereo partly drawn) [Example 61-(b), 3-(1,4-dimethyl-1H-benzo[d][1,2,3)triazol-5-yl)-3-(3-(((R)-6-ethyl-2,2-dimethyl-6,7-dihydro-(1,3]dioxolo[4′,5′:4,5]benzo[1,2-f][1,4]oxazepin-8(9H)-yl)methyl)-4-methylphenyl)-2,2-dimethylpropanoic Acid]
- inhibition at 0.1 µM [1]: ≥ 50%
- EC (1.5-fold NQO1 activity) (NQO1 [2]): 0.005 to 0.05 µM
- fold induction at 30 mg/kg (NQO1 [3]): 3 to 6
- Human metabolic rate [4]: A (metabolic rate<100 pmol/min/mg protein)

SMILES: Cc1ccc(C(c2ccc3c(nnn3C)c2C)C(C)(C)C(=O)O)cc1CN1CCOc2cc3cccnc3cc2C1 (stereo not drawn) [Example 63-(b), 3-(3-((2,3-dihydro-[1,4]oxazepino[7,6-g]quinolin-4 (5H)-yl)methyl)-4-methylphenyl)-3-(1,4-dimethyl-1H-benzo[d][1,2,3]triazol-5-yl)-2,2-dimethylpropanoic Acid]
- inhibition at 0.1 µM [1]: ≥ 50%
- EC (1.5-fold NQO1 activity) (NQO1 [2]): 0.005 to 0.05 µM
- fold induction at 30 mg/kg (NQO1 [3]): 3 to 6
- Human metabolic rate [4]: C (150≤metabolic rate<200 pmol/min/mg protein)

SMILES: CC[C@@H]1CN(Cc2cc(C(c3ccc4c(nnn4C)c3C)C(C)(C)C(=O)O)ccc2C)Cc2cc3c(cnn3C)cc2O1 (stereo partly drawn) [Example 65-(b), 3-(1,4-dimethyl-1H-benzo[d][1,2,3]triazol-5-yl)-3-(3-(((R)-6-ethyl-1-methyl-1,6,7,9-tetrahydro-8H-[1,4]oxazepino[7,6-f]indazol-8-yl)methyl)-4-methylphenyl)-2,2-dimethylpropanoic Acid]
- inhibition at 0.1 µM [1]: ≥ 50%
- EC (1.5-fold NQO1 activity) (NQO1 [2]): 0.0005 to 0.005 µM
- fold induction at 20 mg/kg (NQO1 [3]): 3 to 6
- Human metabolic rate [4]: D (200≤metabolic rate<250 pmol/min/me protein)

SMILES: CC[C@@H]1CN(Cc2cc(C(c3ccc4c(nnn4C)c3C)C(C)(C)C(=O)O)ccc2C)Cc2cc3nn(C)cc3cc2O1 (stereo partly drawn) [Example 66-(b), 3-(1,4-dimethyl-1H-benzo[d][1,2,3]triazol-5-yl)-3-(3-(((R)-6-ethyl-2-methyl-2,6,7,9-tetrahydro-8H-[1,4]oxazepino[7,6-f]indazol-8-yl)methyl)-4-methylphenyl)-2,2-dimethylpropanoic Acid]
- inhibition at 0.1 µM [1]: ≥ 50%
- EC (1.5-fold NQO1 activity) (NQO1 [2]): 0.0005 to 0.005 µM
- fold induction at 20 mg/kg (NQO1 [3]): > 6
- Human metabolic rate [4]: E (metabolic rate≥250 pmol/min/mg protein)

SMILES: CC[C@@H]1CN(Cc2cc(C(c3ccc4c(nnn4C)c3C)C(C)(C)C(=O)O)ccc2C)Cc2cc3c(Cl)cccc3cc2O1 (stereo partly drawn) [Example 68-(b), 3-(3-(((R)-7-chloro-2-ethyl-2,3-dihydronaphtho[2,3-f][1,4]oxazepin-4 (5H)-yl)methyl)-4-methylphenyl)-3-(1,4-dimethyl-1H-benzo[d][1,2,3]triazol-5-yl)-2,2-dimethylpropanoic Acid]
- inhibition at 0.1 µM [1]: ≥ 50%
- EC (1.5-fold NQO1 activity) (NQO1 [2]): 0.005 to 0.05 µM
- fold induction at 20 mg/kg (NQO1 [3]): 3 to 6
- Human metabolic rate [4]: A (metabolic rate<100 pmol/min/mg protein)

SMILES: CC[C@@H]1CN(Cc2cc(C(c3ccc4c(nnn4C)c3C)C(C)(C)C(=O)O)ccc2C)Cc2cc3nccc(Cl)c3cc2O1 (stereo partly drawn) [Example 69, 3-(3-(((R)-10-chloro-2-ethyl-2,3-dihydro-[1,4]oxazepino[7,6-g]quinolin-4 (5H)-yl)methyl)-4-methylphenyl)-3-(1,4-dimethyl-1H-benzo[d][1,2, 3]triazol-5-yl)-2,2-dimethylpropanoic Acid]
- inhibition at 0.1 µM [1]: ≥ 50%
- EC (1.5-fold NQO1 activity) (NQO1 [2]): < 0.0005 µM
- fold induction at 20 mg/kg (NQO1 [3]): 3 to 6
- Human metabolic rate [4]: D (200≤metabolic rate<250 pmol/min/me protein)

SMILES: CC[C@@H]1CN(Cc2cc(C(c3ccc4c(nnn4C)c3C)C(C)(C)C(=O)O)ccc2C)Cc2cc3nccc(OC)c3cc2O1 (stereo partly drawn) [Example 70-(b), 3-(1,4-dimethyl-1H-benzo[d][1,2,3]triazol-5-yl)-3-(3-(((R)-2-ethyl-10-methoxy-2,3-dihydro-[1,4]oxazepino[7,6-g]quinolin-4(5H)-yl)methyl)-4-methylphenyl)-2,2-dimethylpropanoic Acid]
- inhibition at 0.1 µM [1]: ≥ 50%
- EC (1.5-fold NQO1 activity) (NQO1 [2]): 0.0005 to 0.005 µM
- fold induction at 20 mg/kg (NQO1 [3]): > 6
- Human metabolic rate [4]: E (metabolic rate≥250 pmol/min/mg protein)

SMILES: CC[C@@H]1CN(Cc2cc(C(c3ccc4c(nnn4C)c3C)C(C)(C)C(=O)O)ccc2C)Cc2cc3nccc(C)c3cc2O1 (stereo partly drawn) [Example 71-(b), 3-(1,4-dimethyl-1H-benzo[d][1,2,3]triazol-5-yl)-3-(3-(((R)-2-ethyl-10-methyl-2,3-dihydro-[1,4]oxazepino[7,6-g]quinolin-4 (5H)-yl)methyl)-4-methylphenyl)-2,2-dimethylpropanoic Acid]
- inhibition at 0.1 µM [1]: ≥ 50%
- EC (1.5-fold NQO1 activity) (NQO1 [2]): 0.0005 to 0.005 µM
- fold induction at 20 mg/kg (NQO1 [3]): > 6
- Human metabolic rate [4]: D (200≤metabolic rate<250 pmol/min/me protein)

SMILES: CC[C@@H]1CN(Cc2cc(C(c3ccc4c(nnn4C)c3C)C(C)(C)C(=O)O)ccc2C)Cc2cc3ccsc3cc2O1 (stereo partly drawn) [Example 72-(b), 3-(1,4-dimethyl-1H-benzo[d][1,2,3]triazol-5-yl)-3-(3-(((R)-2-ethyl-2,3-dihydrothieno[2′,3′:4,5]benzo[1,2-f][1,4]oxazepin-4(5H)-yl)methyl)-4-methylphenyl)-2,2-dimethylpropanoic Acid]
- inhibition at 0.1 µM [1]: ≥ 50%
- EC (1.5-fold NQO1 activity) (NQO1 [2]): 0.005 to 0.05 µM
- fold induction at 20 mg/kg (NQO1 [3]): ≤ 3
- Human metabolic rate [4]: A (metabolic rate<100 pmol/min/mg protein)
